Source: PubChem BioAssay AID624474 (Sanford-Burnham Center for Chemical Genomics, 2012)

Biological target: Protein skinhead-1 (Caenorhabditis elegans) (UniProt P34707)
Assay: SKN-1 inhibitor hit potency, dose response, fluorescence ratio readout (AID 624474)
Settings: SKN-1 inhibitor fluorescence ratio assay

Chain of Protein skinhead-1 (Caenorhabditis elegans) (P34707 whole entry, looked up): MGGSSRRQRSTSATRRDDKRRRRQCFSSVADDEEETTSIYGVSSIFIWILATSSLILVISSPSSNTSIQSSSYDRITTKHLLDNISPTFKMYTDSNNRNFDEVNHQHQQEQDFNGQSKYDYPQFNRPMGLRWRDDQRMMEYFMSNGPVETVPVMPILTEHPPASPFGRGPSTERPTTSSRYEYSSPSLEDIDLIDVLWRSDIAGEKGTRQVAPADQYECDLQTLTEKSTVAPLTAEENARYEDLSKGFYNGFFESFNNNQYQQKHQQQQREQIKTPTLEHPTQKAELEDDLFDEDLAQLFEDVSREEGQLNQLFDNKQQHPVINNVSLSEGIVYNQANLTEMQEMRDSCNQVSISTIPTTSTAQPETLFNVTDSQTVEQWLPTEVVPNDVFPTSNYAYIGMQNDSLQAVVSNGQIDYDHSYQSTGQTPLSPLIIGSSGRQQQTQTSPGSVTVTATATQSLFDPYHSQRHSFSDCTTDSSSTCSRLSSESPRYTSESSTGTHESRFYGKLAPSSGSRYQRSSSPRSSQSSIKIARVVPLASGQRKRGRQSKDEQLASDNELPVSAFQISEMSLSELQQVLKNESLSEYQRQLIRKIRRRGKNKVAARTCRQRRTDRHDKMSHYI

Structure (SMILES) | IC50
Brc1ccc(-c2nnc(-c3ccco3)o2)cc1 | 13.9 µM
O=C(/C=C/c1ccc(Br)cc1)c1ccc(NC2=NCCCS2)cc1 | 9.41 µM
Clc1ccc(Cn2cc(Br)cn2)cc1Cl | 30.6 µM
COc1cc(CNC(C)(C)CO)cc(Br)c1OCc1ccc(Cl)cc1 | 19.5 µM
